{"source": "the NIST ThermoML archive (doi:10.1016/j.fluid.2016.01.044)", "key": {"[1]": {"details": "Crystal; DTA"}, "[2]": {"test": "Molar enthalpy of transition or fusion", "details": "Crystal; DSC"}}, "note": "Numbers after ± are expanded uncertainties.", "data": [{"compound": "CCCCCCCCCCCC(=O)OCC", "note": "[ethyl dodecanoate]", "values": [{"measurement": "Normal melting temperature", "setting": "[1]", "value": "-0.20 ± 0.5", "unit": "°C"}, {"measurement": "Molar enthalpy of transition or fusion", "setting": "[2]", "value": "9.15 ± 0.263", "unit": "kcal/mol"}]}, {"compound": "CCCCCCCCCCCCCCCC(=O)OCC", "note": "[ethyl hexadecanoate]", "values": [{"measurement": "Normal melting temperature", "setting": "[1]", "value": "24.78 ± 0.5", "unit": "°C"}]}, {"compound": "CCCCCCCCCC", "note": "[decane]", "values": [{"measurement": "Normal melting temperature", "setting": "[1]", "value": "-28.52 ± 0.5", "unit": "°C"}, {"measurement": "Molar enthalpy of transition or fusion", "setting": "[2]", "value": "6.89 ± 0.196", "unit": "kcal/mol"}]}]}
